The source of these data is US12486284B2, “Ubiquitin-specific protease inhibitor and preparation method therefor and use thereof” (CHASER THERAPEUTICS, INC., priority 2019, dated 2025).

One assay addresses T1, USP28 (Homo sapiens, UniProt Q96RU2).
T1 construct: purchased R&D Systems
T1 sequence (Q96RU2 1-1077): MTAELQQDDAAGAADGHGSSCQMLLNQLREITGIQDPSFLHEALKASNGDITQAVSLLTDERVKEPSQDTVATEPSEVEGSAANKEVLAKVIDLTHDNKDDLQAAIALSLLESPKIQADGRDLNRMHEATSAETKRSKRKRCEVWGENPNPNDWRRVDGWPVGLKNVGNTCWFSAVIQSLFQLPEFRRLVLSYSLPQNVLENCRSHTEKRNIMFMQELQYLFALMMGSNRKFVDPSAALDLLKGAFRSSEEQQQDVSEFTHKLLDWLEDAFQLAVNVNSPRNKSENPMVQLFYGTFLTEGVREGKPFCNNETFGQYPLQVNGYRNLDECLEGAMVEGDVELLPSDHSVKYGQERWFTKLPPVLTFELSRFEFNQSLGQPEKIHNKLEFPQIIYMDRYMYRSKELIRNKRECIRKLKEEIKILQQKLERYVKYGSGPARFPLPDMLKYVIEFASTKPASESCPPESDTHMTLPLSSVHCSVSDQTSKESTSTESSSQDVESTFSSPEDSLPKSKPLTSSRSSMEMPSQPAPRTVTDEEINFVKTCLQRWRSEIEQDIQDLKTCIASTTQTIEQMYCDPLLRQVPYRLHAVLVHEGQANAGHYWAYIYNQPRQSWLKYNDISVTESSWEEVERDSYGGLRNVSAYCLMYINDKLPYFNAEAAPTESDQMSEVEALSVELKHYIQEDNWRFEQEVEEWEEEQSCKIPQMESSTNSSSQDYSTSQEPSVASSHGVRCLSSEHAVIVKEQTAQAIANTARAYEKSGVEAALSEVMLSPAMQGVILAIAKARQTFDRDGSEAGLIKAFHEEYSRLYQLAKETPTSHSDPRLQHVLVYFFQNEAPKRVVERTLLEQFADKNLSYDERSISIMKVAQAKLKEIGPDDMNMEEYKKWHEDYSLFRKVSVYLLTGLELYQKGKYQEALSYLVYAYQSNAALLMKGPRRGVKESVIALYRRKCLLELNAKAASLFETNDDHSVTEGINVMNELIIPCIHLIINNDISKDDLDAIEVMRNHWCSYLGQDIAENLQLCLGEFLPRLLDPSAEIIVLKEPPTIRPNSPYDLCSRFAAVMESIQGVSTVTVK
Briefly: USP28 activity measured using ubiquitin-rhodamine 110 method. It is filed as biochemical. Conditions: for pIC50: purified USP28 4 nM, ubiquitin-rhodamine 110 125 nM, 30 min preincubation; for IC50(F)/IC50(E) USP28: ratio of IC50 of related 3-NH2 compound (F) to IC50 of 3-NHMe compound disclosed herein (E). The method in brief:
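Purified USP28 (4 nM final) preincubated with compounds 30 min at room temperature in Tris-HCl pH 8.0 buffer with CaCl2, BME, Prionix and Triton X-100 (DMSO ≤0.5%). Ubiquitin-rhodamine 110 added to 125 nM; fluorescence (ex 485/em 535 nm) read immediately, inhibition versus DMSO control used to calculate IC50.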

For the next assay, the target named is T2, USP25 (Homo sapiens, UniProt Q9UHP3).
T2 construct: purchased R&D Systems
T2 sequence (Q9UHP3 1-1055): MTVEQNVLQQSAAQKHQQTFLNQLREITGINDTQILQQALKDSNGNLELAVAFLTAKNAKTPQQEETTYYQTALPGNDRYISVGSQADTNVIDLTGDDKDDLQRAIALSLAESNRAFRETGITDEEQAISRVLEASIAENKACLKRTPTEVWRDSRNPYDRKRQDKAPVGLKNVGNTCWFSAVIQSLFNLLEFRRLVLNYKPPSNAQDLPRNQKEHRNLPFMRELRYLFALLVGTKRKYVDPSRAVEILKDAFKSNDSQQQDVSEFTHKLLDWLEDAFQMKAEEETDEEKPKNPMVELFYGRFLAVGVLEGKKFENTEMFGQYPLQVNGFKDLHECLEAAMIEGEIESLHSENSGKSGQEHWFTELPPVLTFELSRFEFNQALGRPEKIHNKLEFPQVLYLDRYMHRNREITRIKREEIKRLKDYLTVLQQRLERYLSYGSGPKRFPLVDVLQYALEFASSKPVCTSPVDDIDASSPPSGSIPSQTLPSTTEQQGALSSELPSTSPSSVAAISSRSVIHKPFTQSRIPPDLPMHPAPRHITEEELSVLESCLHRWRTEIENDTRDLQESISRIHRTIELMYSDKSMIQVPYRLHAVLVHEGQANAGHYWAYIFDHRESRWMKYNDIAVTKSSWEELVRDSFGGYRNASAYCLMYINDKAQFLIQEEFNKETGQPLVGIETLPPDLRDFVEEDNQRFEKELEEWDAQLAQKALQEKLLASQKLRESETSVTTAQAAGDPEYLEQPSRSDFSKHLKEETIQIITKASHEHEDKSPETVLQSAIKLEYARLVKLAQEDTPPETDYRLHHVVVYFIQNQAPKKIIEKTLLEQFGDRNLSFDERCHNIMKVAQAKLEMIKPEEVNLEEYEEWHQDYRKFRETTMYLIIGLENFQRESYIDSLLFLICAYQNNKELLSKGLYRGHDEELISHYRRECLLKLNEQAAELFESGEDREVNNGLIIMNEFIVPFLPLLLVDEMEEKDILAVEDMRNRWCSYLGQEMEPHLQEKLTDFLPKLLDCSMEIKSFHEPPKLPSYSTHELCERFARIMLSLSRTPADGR
Briefly: USP25 activity measured using ubiquitin-rhodamine 110 method. Type of assay: biochemical. Conditions: for pIC50: purified USP25 15 nM, ubiquitin-rhodamine 110 125 nM, 30 min preincubation; for IC50(F)/IC50(E) USP25: ratio of IC50 of related 3-NH2 compound (F) to IC50 of 3-NHMe compound disclosed herein (E). The method in brief:
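Compound preincubated 30 min at room temperature with USP25 (15 nM final) in 20 mM Tris-HCl pH 8.0, 2 mM CaCl2, 3 mM BME, 0.01% Prionix, 0.01% Triton X-100, ≤0.5% DMSO. Ubiquitin-rhodamine 110 (125 nM) then added; fluorescence (ex 485/em 535 nm) read immediately. IC50 from % inhibition across concentrations.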

[1] abbreviates: read-out: Inhibitory activity against USP28 (IC50).
The mark [2] stands for this setting: read-out: Inhibitory activity against USP25 (IC50).
Where [3] appears, read: Inhibitory activity against USP28 (IC50).
Setting [4] is: Inhibitory activity against USP25 (IC50).

pIC50: −log10 of the molar value. Where two headings read alike, the source gives them in different places.

On to `CNc1c(C(=O)NCCc2c[nH]c3ccccc23)sc2nc(C)ccc12` [Compound I-49], for which the pIC50 at USP28 (setting [1]) was > 7.00; on USP25 (setting [2]), 5.30 to 6.00. Further, the “IC50(F)/IC50(E) USP28” value on USP28 came out at 5.0. The “IC50(F)/IC50(E) USP25” value at USP25 is given as >7.

Take `CNc1c(C(=O)NCCc2cc(F)c(N3C[C@H]4CC[C@@H](C3)N4)c(F)c2F)sc2nc(C)ccc12` [Compound I-47]: the pIC50 was > 7.00 against USP28 (setting [3]) and 5.00 to 5.30 at USP25 (setting [2]).

Regarding `CNc1c(C(=O)NCCc2ccc(C3CC4CCC(C3)N4)cc2)sc2nc(C)ccc12` (stereo not drawn) [Compound I-4], the pIC50 on USP28 (setting [3]) and at USP25 (setting [4]) was > 7.00 throughout.

On to `CNc1c(C(=O)NCCc2ccc(N3C[C@H]4CC[C@@H](C3)N4)cc2)sc2nc(OC)ccc12` [Compound I-17], for which the pIC50 at USP28 (setting [1]) and on USP25 (setting [2]) was 6.00 to 7.00 in each case.

Regarding `CNc1c(C(=O)NCCc2ccc(N3C[C@H]4CC[C@@H](C3)N4)c(Cl)c2)sc2nc(C)ccc12` [Compound I-38], the negative-log IC50 (pIC50) at USP28 (setting [3]) is > 7.00; at USP25 (setting [2]), < 5.00.

With `CCCc1ccc2c(NC)c(C(=O)NCCc3c[nH]c4ccccc34)sc2n1` [Compound I-51], the pIC50 on USP28 (setting [1]) is > 7.00; at USP25 (setting [2]), 5.30 to 6.00.

`CNc1c(C(=O)NCCc2ccc(N3C[C@H]4CC[C@@H](C3)N4)c(Cl)c2)sc2nc(C)cnc12` [Compound I-75]: the pIC50 on USP28 (setting [3]) and on USP25 (setting [4]) was > 7.00 each time.

For the compound `CNc1c(C(=O)NC[C@@H](F)c2ccc(N3C[C@H]4CC[C@@H](C3)N4)cc2)sc2nc(C)ccc12` [Compound I-69], the results for the pIC50 against USP28 (setting [3]) and on USP25 (setting [2]) were > 7.00 and 6.00 to 7.00, respectively.

For `CNc1c(C(=O)NCCc2cc(F)c(N3C[C@H]4CC[C@@H](C3)N4)cc2F)sc2nc(C)ccc12` [Compound I-42], the pIC50 was > 7.00 against USP28 (setting [3]) and < 5.00 at USP25 (setting [2]).

For `CNc1c(C(=O)N[C@H](C)Cc2ccc(N3C[C@H]4CC[C@@H](C3)N4)cc2)sc2nc(C)ccc12` [Compound I-64], the pIC50 at USP28 (setting [3]) is > 7.00; on USP25 (setting [2]) it was 6.00 to 7.00.

Take `CNc1c(C(=O)NC2COc3cc(N4CC5CCC(C4)N5)ccc3C2)sc2nc(C)ccc12` (stereo not drawn) [Compound I-86]: the pIC50 on USP28 (setting [1]) was 6.00 to 7.00; at USP25 (setting [2]), 5.30 to 6.00.

As to `CNc1c(C(=O)NCCc2ccc(N3C[C@H]4CC[C@@H](C3)N4)cc2)sc2nc(C)c(C)cc12` [Compound I-30], the pIC50 was 6.00 to 7.00 at USP28 (setting [1]) and 5.30 to 6.00 at USP25 (setting [2]).

As to `CNc1c(C(=O)NCCc2c[nH]c3ccccc23)sc2nc(C(F)(F)F)ccc12` [Compound I-54], the pIC50 at USP28 (setting [1]) was > 7.00; on USP25 (setting [2]) it was 5.00 to 5.30.

For `CCCc1ccc2c(NC)c(C(=O)NCCc3ccc(N4C[C@H]5CC[C@@H](C4)N5)cc3)sc2n1` [Compound I-11], the pIC50 at USP28 (setting [3]) is > 7.00; at USP25 (setting [2]) it was < 5.00.

Regarding `CNc1c(C(=O)NCCc2ccc(N3C[C@H]4CC[C@@H](C3)N4)cc2)sc2nc(CC(C)C)ccc12` [Compound I-14], the pIC50 was > 7.00 against USP28 (setting [3]) and < 5.00 at USP25 (setting [2]).

With `CCNc1c(C(=O)NCCc2ccc(N3C[C@H]4CC[C@@H](C3)N4)cc2)sc2nc(C)ccc12` [Compound I-23], the pIC50 is 6.00 to 7.00 on USP28 (setting [1]) and 5.00 to 5.30 on USP25 (setting [2]).

As to `CCc1ccc2c(NC)c(C(=O)NCCc3c[nH]c4ccccc34)sc2n1` [Compound I-50], the pIC50 at USP28 (setting [1]) is > 7.00; on USP25 (setting [2]) it was 5.30 to 6.00.

For `CNc1c(C(=O)N[C@H]2CCc3cc(N4CC5CCC(C4)N5)ccc3C2)sc2nc(C)ccc12` [Compound I-90], the pIC50 against USP28 (setting [3]) was > 7.00; at USP25 (setting [2]), 6.00 to 7.00. The “IC50(F)/IC50(E) USP28” value at USP28 turned out to be 5.5. Further, on USP25, the “IC50(F)/IC50(E) USP25” value was >6.

Consider `CNc1c(C(=O)N[C@H](COC)Cc2ccc(N3C[C@H]4CC[C@@H](C3)N4)cc2)sc2nc(C)ccc12` [Compound I-65], for which the pIC50 is 6.00 to 7.00 at USP28 (setting [1]) and 5.00 to 5.30 on USP25 (setting [2]).

Take `CNc1c(C(=O)NCCc2ccc(N3C[C@H]4CC[C@@H](C3)N4)cc2)sc2nc(C)ccc12` [Compound I-1, N-4-(3,8-diazabicyclo[3.2.1]octan-3-yl)phenethyl-6-methyl-3-methylaminothiophene[2,3-b]pyridine-2-carboxamide]: the pIC50 on USP28 (setting [3]) and against USP25 (setting [4]) was > 7.00 throughout. Besides, on USP28, the “IC50(F)/IC50(E) USP28” value is reported as 18.75. Also, the “IC50(F)/IC50(E) USP25” value at USP25 is >20.

`CNc1c(C(=O)N[C@H](COC)Cc2c[nH]c3ccccc23)sc2nc(C)ccc12` [Compound I-55]: the values for the pIC50 at USP28 (setting [1]) and on USP25 (setting [2]) were 5.30 to 6.00 and < 5.00, respectively.

For the compound `CNc1c(C(=O)NCCc2ccc(C3C4CCC3CNC4)cc2)sc2nc(C)ccc12` (stereo not drawn) [Compound I-5], the pIC50 on USP28 (setting [1]) and at USP25 (setting [2]) was > 7.00 each time.

As to `CNc1c(C(=O)NCCc2ccc(N3C4CCC3CNC4)cc2)sc2nc(C)ccc12` [Compound I-6], the pIC50 on USP28 (setting [3]) and at USP25 (setting [4]) was > 7.00 throughout.

Turning to `CNc1c(C(=O)NCCc2ccc(OC)c(OC)c2)sc2nc(C)cc(C)c12` [Compound I-60], the figures for the pIC50 on USP28 (setting [1]) and on USP25 (setting [2]) were > 7.00 and 5.00 to 5.30, respectively.

By pIC50 is commonly meant the negative decadic logarithm of the IC50, by convention in mol/L.
